Experimental data as given in PubChem BioAssay (NCI).
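48-hour exposure; five concentrations; linearly interpolated endpoints. GI50 is the concentration that inhibits growth by half. The concentration for full growth arrest is given as TGI.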

test system: HOP-62 NSCLC; assay: NCI-60 cell line screen, 48 h

SMILES	TGI [µM]	GI50 [µM]
O=C(NCCNCCCNC(=O)c1cc(-c2ccccc2)nc2ccccc12)c1cccc(O)c1O	15.9	
Cc1ccc(C(CC(=O)c2ccccc2)C2C(=O)NC(=O)NC2=O)cc1 (stereo unspecified)	> 100	> 100
Cc1cc(N(CCC#N)CCC#N)ccc1/C(N=Nc1ccc(C(=O)O)cc1)=N\NC(=O)c1cc(Cl)ccc1O	65.4	
COc1ccc(-c2nc(/C=N/Nc3cc(C)nc4ccc(Cl)cc34)c(C)o2)cc1	3.12	1.64

test system: TK-10 renal; assay: NCI-60 cell line screen, 48 h

SMILES	GI50 [µM]	TGI [µM]
O=c1oc(Cl)c(Cl)c2ccccc12	82.5	> 100
O=C(NCCNCCCNC(=O)c1cc(-c2ccccc2)nc2ccccc12)c1cccc(O)c1O		64.4
Cc1ccc(C(CC(=O)c2ccccc2)C2C(=O)NC(=O)NC2=O)cc1 (stereo unspecified)	> 100	> 100
Cc1cc(N(CCC#N)CCC#N)ccc1/C(N=Nc1ccc(C(=O)O)cc1)=N\NC(=O)c1cc(Cl)ccc1O		> 100
COc1ccc(-c2nc(/C=N/Nc3cc(C)nc4ccc(Cl)cc34)c(C)o2)cc1	1.83	3.3

test system: LOX IMVI melanoma; assay: NCI-60 cell line screen, 48 h

SMILES	GI50 [µM]	TGI [µM]
O=c1oc(Cl)c(Cl)c2ccccc12	17.6	51.9
O=C(NCCNCCCNC(=O)c1cc(-c2ccccc2)nc2ccccc12)c1cccc(O)c1O		> 100
Cc1ccc(C(CC(=O)c2ccccc2)C2C(=O)NC(=O)NC2=O)cc1 (stereo unspecified)	> 100	> 100
COc1ccc(-c2nc(/C=N/Nc3cc(C)nc4ccc(Cl)cc34)c(C)o2)cc1	1.74	3.23

test system: NCI-H226 lung; assay: NCI-60 cell line screen, 48 h

SMILES	GI50 [µM]	TGI [µM]
O=c1oc(Cl)c(Cl)c2ccccc12	22.2	42.3
O=C(NCCNCCCNC(=O)c1cc(-c2ccccc2)nc2ccccc12)c1cccc(O)c1O		36.3
Cc1ccc(C(CC(=O)c2ccccc2)C2C(=O)NC(=O)NC2=O)cc1 (stereo unspecified)	> 100	> 100
Cc1cc(N(CCC#N)CCC#N)ccc1/C(N=Nc1ccc(C(=O)O)cc1)=N\NC(=O)c1cc(Cl)ccc1O		49.9
COc1ccc(-c2nc(/C=N/Nc3cc(C)nc4ccc(Cl)cc34)c(C)o2)cc1	2.35	5.14

test system: T-47D breast; assay: NCI-60 cell line screen, 48 h

SMILES	GI50 [µM]	TGI [µM]
O=c1oc(Cl)c(Cl)c2ccccc12	40.6	> 100
O=C(NCCNCCCNC(=O)c1cc(-c2ccccc2)nc2ccccc12)c1cccc(O)c1O		10.8
Cc1ccc(C(CC(=O)c2ccccc2)C2C(=O)NC(=O)NC2=O)cc1 (stereo unspecified)	> 100	> 100
Cc1cc(N(CCC#N)CCC#N)ccc1/C(N=Nc1ccc(C(=O)O)cc1)=N\NC(=O)c1cc(Cl)ccc1O		> 100
COc1ccc(-c2nc(/C=N/Nc3cc(C)nc4ccc(Cl)cc34)c(C)o2)cc1	1.71	3.56

test system: UACC-62 melanoma; assay: NCI-60 cell line screen, 48 h

SMILES	GI50 [µM]	TGI [µM]
O=c1oc(Cl)c(Cl)c2ccccc12	32.9	> 100
O=C(NCCNCCCNC(=O)c1cc(-c2ccccc2)nc2ccccc12)c1cccc(O)c1O		12.1
Cc1ccc(C(CC(=O)c2ccccc2)C2C(=O)NC(=O)NC2=O)cc1 (stereo unspecified)	> 100	> 100
Cc1cc(N(CCC#N)CCC#N)ccc1/C(N=Nc1ccc(C(=O)O)cc1)=N\NC(=O)c1cc(Cl)ccc1O		> 100
COc1ccc(-c2nc(/C=N/Nc3cc(C)nc4ccc(Cl)cc34)c(C)o2)cc1	1.8	3.37

test system: MDA-MB-231 breast; assay: NCI-60 cell line screen, 48 h

SMILES	GI50 [µM]	TGI [µM]
O=c1oc(Cl)c(Cl)c2ccccc12	24.8	68.4
O=C(NCCNCCCNC(=O)c1cc(-c2ccccc2)nc2ccccc12)c1cccc(O)c1O		> 100
Cc1ccc(C(CC(=O)c2ccccc2)C2C(=O)NC(=O)NC2=O)cc1 (stereo unspecified)	> 100	> 100
Cc1cc(N(CCC#N)CCC#N)ccc1/C(N=Nc1ccc(C(=O)O)cc1)=N\NC(=O)c1cc(Cl)ccc1O		63.1
COc1ccc(-c2nc(/C=N/Nc3cc(C)nc4ccc(Cl)cc34)c(C)o2)cc1	2.03	3.84

test system: SNB-19 CNS; assay: NCI-60 cell line screen, 48 h

SMILES	GI50 [µM]	TGI [µM]
O=c1oc(Cl)c(Cl)c2ccccc12	27.9	> 100
O=C(NCCNCCCNC(=O)c1cc(-c2ccccc2)nc2ccccc12)c1cccc(O)c1O		11.8
Cc1ccc(C(CC(=O)c2ccccc2)C2C(=O)NC(=O)NC2=O)cc1 (stereo unspecified)	> 100	> 100
Cc1cc(N(CCC#N)CCC#N)ccc1/C(N=Nc1ccc(C(=O)O)cc1)=N\NC(=O)c1cc(Cl)ccc1O		55.9
COc1ccc(-c2nc(/C=N/Nc3cc(C)nc4ccc(Cl)cc34)c(C)o2)cc1	1.81	3.46

test system: OVCAR-8 ovarian; assay: NCI-60 cell line screen, 48 h

SMILES	GI50 [µM]	TGI [µM]
O=c1oc(Cl)c(Cl)c2ccccc12	47.8	> 100
Cc1ccc(C(CC(=O)c2ccccc2)C2C(=O)NC(=O)NC2=O)cc1 (stereo unspecified)	> 100	> 100
Cc1cc(N(CCC#N)CCC#N)ccc1/C(N=Nc1ccc(C(=O)O)cc1)=N\NC(=O)c1cc(Cl)ccc1O		93.1
COc1ccc(-c2nc(/C=N/Nc3cc(C)nc4ccc(Cl)cc34)c(C)o2)cc1	1.89	3.91

test system: SK-MEL-28 melanoma; assay: NCI-60 cell line screen, 48 h

SMILES	GI50 [µM]	TGI [µM]
O=c1oc(Cl)c(Cl)c2ccccc12	46.5	> 100
O=C(NCCNCCCNC(=O)c1cc(-c2ccccc2)nc2ccccc12)c1cccc(O)c1O		18.5
Cc1ccc(C(CC(=O)c2ccccc2)C2C(=O)NC(=O)NC2=O)cc1 (stereo unspecified)	> 100	> 100
COc1ccc(-c2nc(/C=N/Nc3cc(C)nc4ccc(Cl)cc34)c(C)o2)cc1	1.8	3.24

test system: RPMI-8226 leukemia; assay: NCI-60 cell line screen, 48 h

SMILES	TGI [µM]	GI50 [µM]
O=C(NCCNCCCNC(=O)c1cc(-c2ccccc2)nc2ccccc12)c1cccc(O)c1O	15.3	
Cc1ccc(C(CC(=O)c2ccccc2)C2C(=O)NC(=O)NC2=O)cc1 (stereo unspecified)	> 100	> 100
Cc1cc(N(CCC#N)CCC#N)ccc1/C(N=Nc1ccc(C(=O)O)cc1)=N\NC(=O)c1cc(Cl)ccc1O	> 100	

test system: UACC-257 melanoma; assay: NCI-60 cell line screen, 48 h

SMILES	GI50 [µM]	TGI [µM]
O=c1oc(Cl)c(Cl)c2ccccc12	93.8	> 100
O=C(NCCNCCCNC(=O)c1cc(-c2ccccc2)nc2ccccc12)c1cccc(O)c1O		18.5
Cc1ccc(C(CC(=O)c2ccccc2)C2C(=O)NC(=O)NC2=O)cc1 (stereo unspecified)	> 100	> 100
Cc1cc(N(CCC#N)CCC#N)ccc1/C(N=Nc1ccc(C(=O)O)cc1)=N\NC(=O)c1cc(Cl)ccc1O		> 100
COc1ccc(-c2nc(/C=N/Nc3cc(C)nc4ccc(Cl)cc34)c(C)o2)cc1	1.7	3.35

test system: KM12 colon; assay: NCI-60 cell line screen, 48 h

SMILES	GI50 [µM]	TGI [µM]
O=c1oc(Cl)c(Cl)c2ccccc12	35.8	> 100
O=C(NCCNCCCNC(=O)c1cc(-c2ccccc2)nc2ccccc12)c1cccc(O)c1O		76.6
Cc1ccc(C(CC(=O)c2ccccc2)C2C(=O)NC(=O)NC2=O)cc1 (stereo unspecified)	> 100	> 100
Cc1cc(N(CCC#N)CCC#N)ccc1/C(N=Nc1ccc(C(=O)O)cc1)=N\NC(=O)c1cc(Cl)ccc1O		> 100
COc1ccc(-c2nc(/C=N/Nc3cc(C)nc4ccc(Cl)cc34)c(C)o2)cc1	1.79	3.49

test system: U251 CNS; assay: NCI-60 cell line screen, 48 h

SMILES	GI50 [µM]	TGI [µM]
O=c1oc(Cl)c(Cl)c2ccccc12	21.2	52.1
O=C(NCCNCCCNC(=O)c1cc(-c2ccccc2)nc2ccccc12)c1cccc(O)c1O		17.6
Cc1ccc(C(CC(=O)c2ccccc2)C2C(=O)NC(=O)NC2=O)cc1 (stereo unspecified)	> 100	> 100
Cc1cc(N(CCC#N)CCC#N)ccc1/C(N=Nc1ccc(C(=O)O)cc1)=N\NC(=O)c1cc(Cl)ccc1O		63.1
COc1ccc(-c2nc(/C=N/Nc3cc(C)nc4ccc(Cl)cc34)c(C)o2)cc1	1.78	3.28

test system: A498 renal; assay: NCI-60 cell line screen, 48 h

SMILES	TGI [µM]	GI50 [µM]
O=C(NCCNCCCNC(=O)c1cc(-c2ccccc2)nc2ccccc12)c1cccc(O)c1O	55.9	
Cc1ccc(C(CC(=O)c2ccccc2)C2C(=O)NC(=O)NC2=O)cc1 (stereo unspecified)	> 100	> 100
